The record followed here is article PMC5329948, “Caspase vinyl sulfone small molecule inhibitors prevent axonal degeneration in human neurons and reverse cognitive impairment in Caspase-6-overexpressing mice” (Molecular Neurodegeneration, 2017).

pIC50: −log10 of the molar value.

The term pIC50 denotes the IC50 on a negative log10 scale, so that one unit is a factor of ten.

For this experiment, the target named is T1, recombinant active site-titrated Casp6 (Homo sapiens, UniProt P55212).
T1 construct: human Casp6 large subunit (amino acids 24-179, flanked by start (ATG) and stop (TAA) codons); small subunit (amino acids 194-293, preceded by a start codon); initiator Met (added start codon) (N); His; made in house; host or cells: E. coli BL21(DE3)pLysS
T1 sequence (P55212 24-179): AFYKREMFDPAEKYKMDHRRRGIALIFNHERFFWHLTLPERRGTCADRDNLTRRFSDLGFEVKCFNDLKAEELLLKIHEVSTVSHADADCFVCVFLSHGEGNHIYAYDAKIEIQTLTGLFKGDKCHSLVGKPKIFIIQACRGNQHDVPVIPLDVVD
T1 sequence (P55212 194-293): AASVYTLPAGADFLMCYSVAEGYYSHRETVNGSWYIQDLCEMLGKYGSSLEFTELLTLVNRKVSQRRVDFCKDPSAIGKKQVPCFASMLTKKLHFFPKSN
As to the kind of experiment: IC50 on in-house recombinant active site-titrated Casp6 (Ac-VEID-AFC fluorogenic assay). The experiment is classed as biochemical. The note with it: 20 nM Casp6, 5 min preincubation at room temperature, 10 μM Ac-VEID-AFC; read-out: IC50 against recombinant active site-titrated Casp6. How it is done: Recombinant Casp6 Expression and purification: Casp6 was expressed from the pET23b(+)-Casp6-His plasmid in E. coli BL21(DE3)pLysS strain (Promega, Fitchburg, WI, USA) at 37 °C in 2xYT medium (16 g/l tryptone, 10 g/l yeast extract, 5 g/l NaCl) supplemented with 0.1 mg/ml ampicillin and 0.034 mg/ml chloramphenicol under vigorous shaking according to [46]. Casp6 expression was induced with 50 μM isopropyl β-D-1-thiogalactopyranoside (IPTG) when cell cultures reached OD595 nm of 0.6 and cells cultured at 22 °C for 16 h under vigorous shaking. […] The lysate was clarified by centrifugation (30,000 x g for 30 min at 4 °C) and loaded on Ni Sepharose Fast Flow 6 medium (GE Healthcare Life Sciences, Baie D’Urfe, QC, CA) pre-equilibrated with buffer A, washed with buffer B (50 mM Tris pH 8.5, 500 mM NaCl, 5% glycerol, 20 mM imidazole), and bound proteins eluted with a 50-300 mM linear imidazole gradient in buffer A. Fractions were assessed for recombinant Casp6 purity by SDS-PAGE and Coomassie blue staining. […] Protein concentration was measured using Quick Start Bradford 1x Dye Reagent (Bio-Rad Laboratories, Hercules, CA, USA). Active site titration assay: The concentration of Casp6 active sites was determined by active site titration assay using Z-VAD-fmk (N-benzyloxycarbonyl-Val-Ala-Asp-(O-methyl)-fluoromethylketone, MP Biomedicals, Santa Ana, CA, USA) inhibitor [46]. […]

On to `CCC(C)[C@H](NC(=O)[C@H](CCC(=O)O)NC(=O)[C@@H](NC(=O)OCc1ccccc1)C(C)C)C(=O)N[C@H](/C=C/S(C)(=O)=O)CC(=O)O` (some centres unmarked) [NWL-117], for which the negative logarithm of the IC50 (pIC50) was 6.72.
In the case of `CCC(C)[C@H](NC(=O)[C@H](CCC(=O)O)NC(=O)[C@@H](NC(=O)OCc1ccccc1)C(C)C)C(=O)N[C@H](/C=C(\Cl)S(C)(=O)=O)CC(=O)O` (some centres unmarked) [NWL-154] it was 7.00.
